From PubChem BioAssay (NCI)
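These data come from cells grown in 96-well plates and exposed to compound for 48 hours at five concentrations. GI50 = concentration required for 50% inhibition of growth. TGI is the concentration that stops growth completely.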

Columns and labels:
Assay in all cases: DTP human tumour cell line panel, 48 h
[1] = system: 786-0 renal
[2] = system: A498 renal
[3] = system: A549 NSCLC
[4] = system: ACHN renal
[5] = system: BT-549 breast
[6] = system: CAKI-1 renal
[7] = system: CCRF-CEM leukemia
[8] = system: COLO 205 colon
[9] = system: DU-145 prostate
[10] = system: EKVX NSCLC
[11] = system: HCT-116 colon
[12] = system: HCT-15 colon
[13] = system: HL-60(TB) leukemia
[14] = system: HOP-62 NSCLC
[15] = system: HOP-92 NSCLC
[16] = system: HS 578T breast
[17] = system: HT29 colon
[18] = system: IGROV1 ovarian
[19] = system: KM12 colon
[20] = system: LOX IMVI melanoma
[21] = system: M14 melanoma
[22] = system: MALME-3M melanoma
[23] = system: MCF7 breast
[24] = system: MDA-MB-435
[25] = system: MDA-N
[26] = system: MOLT-4 leukemia
[27] = system: NCI-H226 lung
[28] = system: NCI-H23 lung
[29] = system: NCI-H460 lung
[30] = system: NCI-H522 lung
[31] = system: NCI/ADR-RES ovarian
[32] = system: OVCAR-3 ovarian
[33] = system: OVCAR-4 ovarian
[34] = system: OVCAR-5 ovarian
[35] = system: OVCAR-8 ovarian
[36] = system: PC-3 prostate
[37] = system: RXF 393 renal
[38] = system: SF-268 CNS
[39] = system: SF-295 CNS
[40] = system: SF-539 CNS
[41] = system: SK-MEL-2 melanoma
[42] = system: SK-MEL-28 melanoma
[43] = system: SK-MEL-5 melanoma
[44] = system: SK-OV-3 ovarian
[45] = system: SN12C renal
[46] = system: SNB-19 CNS
[47] = system: SNB-75 CNS
[48] = system: SR leukemia
[49] = system: SW-620 colon
[50] = system: T-47D breast
[51] = system: TK-10 renal
[52] = system: U251 CNS
[53] = system: UACC-257 melanoma
[54] = system: UACC-62 melanoma
[55] = system: UO-31 renal
[56] = system: K-562 leukemia
[57] = system: MDA-MB-231 breast
[58] = system: RPMI-8226 leukemia
[59] = system: HCC-2998 colon

Molecule `COc1cc(OC)cc(Oc2nc3cc(F)c(F)cc3nc2-c2ccccc2)c1` has a TGI [1] of over 100 µM, a TGI [2] of over 100 µM and a TGI [3] of over 100 µM. The TGI [4] was over 100 µM, the TGI [5] was over 100 µM and the TGI [6] was over 100 µM. It also gave a TGI [7] of over 100 µM, a TGI [8] of over 100 µM and a TGI [9] of over 100 µM. The TGI [10] was over 100 µM, the TGI [11] was over 100 µM and the TGI [12] was over 100 µM. For the same molecule, the TGI [13] was over 100 µM, the TGI [14] was over 100 µM and the TGI [15] was over 100 µM. For the same molecule, the TGI [16] was over 100 µM, the TGI [17] was over 100 µM and the TGI [18] was over 100 µM. The TGI [19] was over 100 µM, the TGI [20] was over 100 µM and the TGI [21] was over 100 µM. The TGI [22] was over 100 µM, the TGI [23] was over 100 µM and the TGI [24] was over 100 µM. For the same molecule, the TGI [25] was over 100 µM, the TGI [26] was over 100 µM and the TGI [27] was over 100 µM. For the same molecule, the TGI [28] was over 100 µM, the TGI [29] was over 100 µM and the TGI [30] was over 100 µM. The TGI [31] was over 100 µM, the TGI [32] was over 100 µM and the TGI [33] was over 100 µM. The TGI [34] was over 100 µM, the TGI [35] was over 100 µM and the TGI [36] was over 100 µM. For the same molecule, the TGI [37] was over 100 µM, the TGI [38] was over 100 µM and the TGI [39] was over 100 µM. It also gave a TGI [40] of over 100 µM, a TGI [41] of over 100 µM and a TGI [42] of over 100 µM. It also gave a TGI [43] of over 100 µM, a TGI [44] of over 100 µM and a TGI [45] of over 100 µM. For the same molecule, the TGI [46] was over 100 µM, the TGI [47] was over 100 µM and the TGI [48] was over 100 µM. For the same molecule, the TGI [49] was over 100 µM, the TGI [50] was over 100 µM and the TGI [51] was over 100 µM. The TGI [52] was over 100 µM, the TGI [53] was over 100 µM and the TGI [54] was over 100 µM. The TGI [55] was over 100 µM.
`Cc1cnc2[nH]c(-c3cccc(F)c3)cc(=O)c2c1` gave a TGI [1] of over 83.6 µM, a TGI [3] of over 100 µM and a TGI [4] of over 100 µM. The TGI [6] was over 100 µM, the TGI [8] was 0.0582 µM and the TGI [9] was 1.3 µM. It also gave a TGI [10] of over 100 µM, a TGI [12] of 2.59 µM and a TGI [13] of 0.0628 µM. For the same molecule, the TGI [14] was over 100 µM, the TGI [15] was over 100 µM and the TGI [16] was 0.0448 µM. For the same molecule, the TGI [17] was 0.806 µM, the TGI [18] was over 100 µM and the TGI [56] was over 100 µM. The TGI [19] was 1.7 µM, the TGI [20] was over 100 µM and the TGI [22] was over 100 µM. It also gave a TGI [57] of 0.614 µM, a TGI [24] of 0.0228 µM and a TGI [25] of 0.027 µM. The TGI [26] was over 100 µM, the TGI [27] was 4.43 µM and the TGI [28] was 2.03 µM. The TGI [30] was 0.108 µM, the TGI [31] was 0.0395 µM and the TGI [32] was 0.0373 µM. It also gave a TGI [33] of over 100 µM, a TGI [34] of over 100 µM and a TGI [35] of 1.5 µM. For the same molecule, the TGI [58] was over 43 µM, the TGI [37] was over 100 µM and the TGI [38] was over 100 µM. For the same molecule, the TGI [40] was 0.263 µM, the TGI [42] was over 100 µM and the TGI [44] was over 100 µM. The TGI [45] was over 100 µM, the TGI [47] was over 100 µM and the TGI [48] was 0.378 µM. The TGI [50] was over 100 µM, the TGI [52] was over 100 µM and the TGI [53] was over 100 µM. The TGI [54] was over 100 µM and the TGI [55] was over 100 µM.
`CS(=O)(=O)c1ccc(Cl)c([N+](=O)[O-])c1` gave a GI50 [1] of 19.9 µM, a TGI [1] of 36.8 µM and a GI50 [2] of 38.6 µM. The TGI [2] was over 100 µM, the GI50 [3] was 19.3 µM and the TGI [3] was 41.1 µM. The GI50 [4] was 16 µM, the TGI [4] was 29.7 µM and the GI50 [5] was 18.7 µM. For the same molecule, the TGI [5] was 32.8 µM, the GI50 [6] was 2.05 µM and the TGI [6] was 4.3 µM. For the same molecule, the GI50 [7] was 19.2 µM, the TGI [7] was 52.2 µM and the GI50 [8] was 16.4 µM. The TGI [8] was 33.2 µM, the GI50 [9] was 13.3 µM and the TGI [9] was 26.4 µM. The GI50 [10] was 18.5 µM, the TGI [10] was 38.1 µM and the GI50 [59] was 11 µM. The TGI [59] was 24 µM, the GI50 [11] was 12.9 µM and the TGI [11] was 25.7 µM. It also gave a GI50 [12] of 5.91 µM, a TGI [12] of 23.3 µM and a GI50 [13] of 19.7 µM. For the same molecule, the TGI [13] was 47.6 µM, the GI50 [14] was 15.8 µM and the TGI [14] was 29.5 µM. For the same molecule, the GI50 [15] was 18.3 µM, the TGI [15] was 35 µM and the GI50 [16] was 26 µM. The TGI [16] was 89.1 µM, the GI50 [17] was 4.63 µM and the TGI [17] was 17 µM. The GI50 [18] was 18 µM, the TGI [18] was 45.1 µM and the GI50 [56] was 6.78 µM. The TGI [56] was 66.5 µM, the GI50 [19] was 14.8 µM and the TGI [19] was 29.6 µM. For the same molecule, the GI50 [20] was 10.1 µM, the TGI [20] was 23.4 µM and the GI50 [21] was 17 µM. It also gave a TGI [21] of 31.7 µM, a GI50 [22] of 21 µM and a TGI [22] of 44.9 µM. For the same molecule, the GI50 [23] was 10.9 µM, the TGI [23] was 33.7 µM and the GI50 [57] was 16.1 µM. The TGI [57] was 31.1 µM, the GI50 [24] was 18.9 µM and the TGI [24] was 38.4 µM. For the same molecule, the GI50 [26] was 28.5 µM, the TGI [26] was 69.5 µM and the GI50 [27] was 15 µM. For the same molecule, the TGI [27] was 30.3 µM, the GI50 [28] was 16.5 µM and the TGI [28] was 33.5 µM. It also gave a GI50 [29] of 18.3 µM, a TGI [29] of 40.8 µM and a GI50 [30] of 16.5 µM. It also gave a TGI [30] of 33.5 µM, a GI50 [31] of 20.8 µM and a TGI [31] of 46.9 µM. For the same molecule, the GI50 [32] was 17.8 µM, the TGI [32] was 32.5 µM and the GI50 [33] was 2.02 µM. The TGI [33] was 3.9 µM, the GI50 [34] was 20.1 µM and the TGI [34] was 36.1 µM. It also gave a GI50 [35] of 17.7 µM, a TGI [35] of 36.8 µM and a GI50 [36] of 19.1 µM. It also gave a TGI [36] of 37.5 µM, a GI50 [58] of 25.5 µM and a TGI [58] of 70 µM. For the same molecule, the GI50 [37] was 11.9 µM, the TGI [37] was 24.5 µM and the GI50 [38] was 18.5 µM. The TGI [38] was 36.3 µM, the GI50 [39] was 18.5 µM and the TGI [39] was 37.9 µM. It also gave a GI50 [40] of 19.2 µM, a TGI [40] of 34.4 µM and a GI50 [41] of 23.2 µM. For the same molecule, the TGI [41] was 41.7 µM, the GI50 [42] was 17.9 µM and the TGI [42] was 32 µM. The GI50 [43] was 13 µM, the TGI [43] was 25.7 µM and the GI50 [44] was 18.4 µM. For the same molecule, the TGI [44] was 32.3 µM, the GI50 [45] was 13.8 µM and the TGI [45] was 28.2 µM. For the same molecule, the GI50 [46] was 12.5 µM, the TGI [46] was 25.5 µM and the GI50 [47] was 15.3 µM. It also gave a TGI [47] of 29.5 µM, a GI50 [48] of 15.3 µM and a TGI [48] of 46.6 µM. For the same molecule, the GI50 [49] was 12.8 µM, the TGI [49] was 28.6 µM and the GI50 [50] was 13.5 µM. It also gave a TGI [50] of 35.1 µM, a GI50 [51] of 18.9 µM and a TGI [51] of 34.4 µM. It also gave a GI50 [52] of 15.2 µM, a TGI [52] of 29 µM and a GI50 [53] of 15.8 µM. The TGI [53] was 31.6 µM, the GI50 [54] was 15.1 µM and the TGI [54] was 28.6 µM. It also gave a GI50 [55] of 1.97 µM and a TGI [55] of 4.04 µM.
